This is an account of results in patent US12612360B2 (Sanofi, priority 2020, dated 2026).

The test addresses T1, ERα (Homo sapiens, UniProt P03372).
T1 construct: host or cells: MCF7
T1 sequence (P03372 1-595): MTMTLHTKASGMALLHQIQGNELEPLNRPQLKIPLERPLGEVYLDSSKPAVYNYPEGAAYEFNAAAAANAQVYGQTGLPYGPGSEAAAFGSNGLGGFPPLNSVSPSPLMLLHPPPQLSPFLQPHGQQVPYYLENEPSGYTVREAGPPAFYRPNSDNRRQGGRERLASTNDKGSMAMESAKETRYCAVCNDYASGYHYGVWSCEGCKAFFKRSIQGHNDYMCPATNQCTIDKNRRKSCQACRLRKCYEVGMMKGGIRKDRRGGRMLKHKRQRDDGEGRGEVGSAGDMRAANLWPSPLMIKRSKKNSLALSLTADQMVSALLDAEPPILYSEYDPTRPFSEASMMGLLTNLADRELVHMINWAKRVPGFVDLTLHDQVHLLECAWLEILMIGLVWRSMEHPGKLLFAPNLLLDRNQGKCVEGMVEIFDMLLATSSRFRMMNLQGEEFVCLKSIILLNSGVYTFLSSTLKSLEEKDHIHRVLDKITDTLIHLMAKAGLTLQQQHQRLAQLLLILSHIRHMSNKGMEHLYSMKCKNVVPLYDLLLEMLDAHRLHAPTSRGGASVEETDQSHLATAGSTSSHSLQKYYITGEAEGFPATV
Kind of test: Estrogen receptor degradation activity: breast cancer cell ERα in cell western assay (MCF7 cells). The settings on record: for % Degradation At 0.3 μM: 4 hours, relative to fulvestrant 0.1 μM positive control; for DC50: 4 hours post compound addition, concentration which degrades 50% of the estrogen receptor, read-out: Degradation IC50. The class given is cell-based. The gist of the method: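 In-cell western readout: ERα immunofluorescence (Alexa 488) normalised to DNA signal (Syto-64) after formalin fixation. Compounds dosed for 4 h on MCF7 cells in stripped-serum, phenol-red-free medium over nine 1:5 steps, 0.3 to […] final; fulvestrant 0.1 μM control. IC50 in nM for 50% ERα degradation.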

Consider `O=C(O)c1ccc2c(c1)CCCC(c1cccc(Cl)c1F)=C2c1ccc(C=C2CN(CCCF)C2)cc1` [Example 47, 8-(3-chloro-2-fluorophenyl)-9-(4-((1-(3-fluoropropyl)azetidin-3-ylidene)methyl)phenyl)-6,7-dihydro-5H-benzo[7]annulene-3-carboxylic acid], for which the “% Degradation At 0.3 μM” value is on record as 91% and the DC50 was 0.3 nM.

In the case of `Cc1cccc(C2=C(c3ccc(C=C4CN(CCCF)C4)cc3)c3ccc(C(=O)O)cc3CCC2)c1F` [Example 48, 8-(2-fluoro-3-methylphenyl)-9-(4-((1-(3-fluoropropyl)azetidin-3-ylidene)methyl)phenyl)-6,7-dihydro-5H-benzo[7]annulene-3-carboxylic acid], the “% Degradation At 0.3 μM” value stood at 95% and the DC50 was 0.3 nM.

Take `O=C(O)c1ccc2c(c1)CCCC(c1ccc(C(F)(F)F)cc1F)=C2c1ccc(C=C2CN(CCCF)C2)cc1` [Example 49, 8-(2-fluoro-4-(trifluoromethyl)phenyl)-9-(4-((1-(3-fluoropropyl)azetidin-3-ylidene)methyl)phenyl)-6,7-dihydro-5H-benzo[7]annulene-3-carboxylic acid]: the “% Degradation At 0.3 μM” value was 98% and the DC50 was found to be 0.3 nM.

`O=C(O)c1ccc2c(c1)CCCC(c1ccc(C(F)(F)F)cc1Cl)=C2c1ccc(C=C2CN(CCCF)C2)cc1` [Example 50, 8-(2-chloro-4-(trifluoromethyl)phenyl)-9-(4-((1-(3-fluoropropyl)azetidin-3-ylidene)methyl)phenyl)-6,7-dihydro-5H-benzo[7]annulene-3-carboxylic acid]: the “% Degradation At 0.3 μM” value is on record as 93% and the DC50 turned out to be 0.1 nM.

For the compound `Cc1cc(F)c(C2=C(c3ccc(C=C4CN(CCCF)C4)cc3)c3ccc(C(=O)O)cc3CCC2)c(F)c1` [Example 51, 8-(2,6-difluoro-4-methylphenyl)-9-(4-((1-(3-fluoropropyl)azetidin-3-ylidene)methyl)phenyl)-6,7-dihydro-5H-benzo[7]annulene-3-carboxylic acid], the “% Degradation At 0.3 μM” value was 95% and the DC50 came out at 0.4 nM.

Take `O=C(O)c1ccc2c(c1)CCCC(c1ccc(F)cc1F)=C2c1c(F)cc(C=C2CN(CCCF)C2)cc1F` [Example 52, 9-(2,6-difluoro-4-((1-(3-fluoropropyl)azetidin-3-ylidene)methyl)phenyl)-8-(2,4-difluorophenyl)-6,7-dihydro-5H-benzo[7]annulene-3-carboxylic acid]: the “% Degradation At 0.3 μM” value was 97% and the DC50 was 0.3 nM.

For the compound `O=C(O)c1ccc2c(c1)CCCC(c1ccc(F)cc1F)=C2c1ccc(C=C2CN(CCCF)C2)c(F)c1` [Example 53, 8-(2,4-difluorophenyl)-9-(3-fluoro-4-((1-(3-fluoropropyl)azetidin-3-ylidene)methyl)phenyl)-6,7-dihydro-5H-benzo[7]annulene-3-carboxylic acid], the “% Degradation At 0.3 μM” value was determined as 94% and the DC50 was found to be 0.3 nM.

Turning to `O=C(O)c1ccc2c(c1)CCCC(c1ccc(F)cc1F)=C2c1ccc(C=C2CN(CCCF)C2)cc1` [Example 54, 8-(2,4-difluorophenyl)-9-(4-((1-(3-fluoropropyl)azetidin-3-ylidene)methyl)phenyl)-6,7-dihydro-5H-benzo[7]annulene-3-carboxylic acid], the “% Degradation At 0.3 μM” value was 93% and the DC50 worked out at 0.4 nM.

As for `O=C(O)c1ccc2c(c1)CCCC(c1cccc(F)c1F)=C2c1ccc(C=C2CN(CCCF)C2)cc1` [Example 55, 8-(2,3-difluorophenyl)-9-(4-((1-(3-fluoropropyl)azetidin-3-ylidene)methyl)phenyl)-6,7-dihydro-5H-benzo[7]annulene-3-carboxylic acid], the “% Degradation At 0.3 μM” value was determined as 94% and the DC50 came to 1 nM.

In the case of `O=C(O)c1ccc2c(c1)CCCC(c1cccc(C(F)(F)F)c1F)=C2c1ccc(C=C2CN(CCCF)C2)cc1` [Example 56, 8-(2-fluoro-3-(trifluoromethyl)phenyl)-9-(4-((1-(3-fluoropropyl)azetidin-3-ylidene)methyl)phenyl)-6,7-dihydro-5H-benzo[7]annulene-3-carboxylic acid], the “% Degradation At 0.3 μM” value worked out at 93% and the DC50 worked out at 0.2 nM.

`Cc1ccc(C2=C(c3ccc(C=C4CN(CCCF)C4)cc3)c3ccc(C(=O)O)cc3CCC2)c(F)c1` [Example 57, 8-(2-fluoro-4-methylphenyl)-9-(4-((1-(3-fluoropropyl)azetidin-3-ylidene)methyl)phenyl)-6,7-dihydro-5H-benzo[7]annulene-3-carboxylic acid]: the “% Degradation At 0.3 μM” value came out at 93% and the DC50 stood at 0.2 nM.

Regarding `O=C(O)c1ccc2c(c1)CCCC(c1ccc(Cl)cc1F)=C2c1ccc(C=C2CN(CCCF)C2)cc1` [Example 58, 8-(4-chloro-2-fluorophenyl)-9-(4-((1-(3-fluoropropyl)azetidin-3-ylidene)methyl)phenyl)-6,7-dihydro-5H-benzo[7]annulene-3-carboxylic acid], the “% Degradation At 0.3 μM” value amounted to 99% and the DC50 stood at 0.2 nM.

Consider `O=C(O)c1ccc2c(c1)CCCC(c1ccc(F)cc1F)=C2c1cc(F)c(C=C2CN(CCCF)C2)c(F)c1` [Example 59, 9-(3,5-difluoro-4-((1-(3-fluoropropyl)azetidin-3-ylidene)methyl)phenyl)-8-(2,4-difluorophenyl)-6,7-dihydro-5H-benzo[7]annulene-3-carboxylic acid], for which the “% Degradation At 0.3 μM” value was 93% and the DC50 was found to be 0.4 nM.

Turning to `O=C(O)c1ccc2c(c1)CCCC(C1CCOCC1)=C2c1ccc(C=C2CN(CCCF)C2)cc1` [Example 60, 9-(4-((1-(3-Fluoropropyl)azetidin-3-ylidene)methyl)phenyl)-8-(tetrahydro-2H-pyran-4-yl)-6,7-dihydro-5H-benzo[7]annulene-3-carboxylic acid], the “% Degradation At 0.3 μM” value is 91% and the DC50 amounted to 2.3 nM.

In the case of `Cc1cc(F)ccc1C1=C(c2cc(F)c(C=C3CN(CCCF)C3)cc2C)c2ccc(C(=O)O)cc2CCC1.Cl` [Example 61, 8-(4-fluoro-2-methylphenyl)-9-(5-fluoro-4-((1-(3-fluoropropyl)azetidin-3-ylidene)methyl)-2-methylphenyl)-6,7-dihydro-5H-benzo[7]annulene-3-carboxylic acid hydrochloride], the “% Degradation At 0.3 μM” value came to 93% and the DC50 was 0.8 nM.

`Cc1cc(F)ccc1C1=C(c2c(C)cc(C=C3CN(CCCF)C3)cc2F)c2ccc(C(=O)O)cc2CCC1.Cl` [Example 62, 8-(4-fluoro-2-methylphenyl)-9-(2-fluoro-4-((1-(3-fluoropropyl)azetidin-3-ylidene)methyl)-6-methylphenyl)-6,7-dihydro-5H-benzo[7]annulene-3-carboxylic acid hydrochloride]: the “% Degradation At 0.3 μM” value was determined as 99% and the DC50 is 0.5 nM.

Turning to `Cc1c(C2=C(c3ccc(Cl)cc3Cl)CCCc3cc(C(=O)O)ccc32)ccc(C=C2CN(CCCF)C2)c1F` [Example 63, 8-(2,4-dichlorophenyl)-9-(3-fluoro-4-((1-(3-fluoropropyl)azetidin-3-ylidene)methyl)-2-methylphenyl)-6,7-dihydro-5H-benzo[7]annulene-3-carboxylic acid], the “% Degradation At 0.3 μM” value is 90% and the DC50 came out at 0.7 nM.

On to `Cc1cc(C2=C(c3ccc(Cl)cc3Cl)CCCc3cc(C(=O)O)ccc32)ccc1C=C1CN(CCCF)C1` [Example 64, 8-(2,4-dichlorophenyl)-9-(4-((1-(3-fluoropropyl)azetidin-3-ylidene)methyl)-3-methylphenyl)-6,7-dihydro-5H-benzo[7]annulene-3-carboxylic acid], for which the “% Degradation At 0.3 μM” value is given as 93% and the DC50 amounted to 0.3 nM.

`Cc1cc(F)ccc1C1=C(c2cc(F)c(C=C3CN(CCCF)C3)cc2F)c2ccc(C(=O)O)cc2CCC1.Cl` [Example 65, 9-(2,5-difluoro-4-((1-(3-fluoropropyl)azetidin-3-ylidene)methyl)phenyl)-8-(4-fluoro-2-methylphenyl)-6,7-dihydro-5H-benzo[7]annulene-3-carboxylic acid hydrochloride]: the “% Degradation At 0.3 μM” value is reported as 95% and the DC50 was found to be 0.3 nM.

For `Cc1cc(C=C2CN(CCCF)C2)cc(F)c1C1=C(c2ccc(Cl)cc2Cl)CCCc2cc(C(=O)O)ccc21.Cl` [Example 66, 8-(2,4-dichlorophenyl)-9-(2-fluoro-4-((1-(3-fluoropropyl)azetidin-3-ylidene)methyl)-6-methylphenyl)-6,7-dihydro-5H-benzo[7]annulene-3-carboxylic acid hydrochloride], the “% Degradation At 0.3 μM” value stood at 98% and the DC50 is 0.4 nM.

In the case of `Cc1cc(F)ccc1C1=C(c2ccc(C=C3CN(CCCF)C3)c(C)c2F)c2ccc(C(=O)O)cc2CCC1` [Example 67, 8-(4-fluoro-2-methylphenyl)-9-(2-fluoro-4-((1-(3-fluoropropyl)azetidin-3-ylidene)methyl)-3-methylphenyl)-6,7-dihydro-5H-benzo[7]annulene-3-carboxylic acid], the “% Degradation At 0.3 μM” value is 99% and the DC50 came out at 0.5 nM.
